In patent publication US11932608B1, “4-((2-(2-(2-(4-hydroxyphenyl)-4,5-diphenyl-1H-imidazol-1-yl)acetyl)hydrazono)methyl)benzoic acid as an anticancer compound” (KING FAISAL UNIVERSITY, priority 2023, dated 2024):

How the values were obtained:
HCT-116 = test: Percentage growth inhibition of in vitro subpanel tumor cell lines; type: cell-based; settings: Homo sapiens; 0.01 mM; HCT-116, Colon Cancer; read-out: Percentage growth inhibition (GI %)
Protocol: (§1) The anticancer activity of 4-((2-(2-(2-(4-hydroxyphenyl)-4,5-diphenyl-1H-imidazol-1-yl)acetyl)hydrazono)methyl)benzoic acid was assessed against leukemia, non-small cell lung cancer, colon cancer, central nervous system (CNS) cancer, melanoma, ovarian cancer, renal cancer, prostate cancer, and breast cancer.
(§2) Percentage growth inhibition (GI %) of in vitro subpanel tumor cell lines at 0.01 mM concentration for compound 4-((2-(2-(2-(4-hydroxyphenyl)-4,5-diphenyl-1H-imidazol-1-yl)acetyl)hydrazono)methyl)benzoic acid (Labeled as AE21 in the table) can be seen in Table 1 below.

MDA-MB-435 = test: as above; type: cell-based; settings: Homo sapiens; 0.01 mM; MDA-MB-435, Melanoma; read-out: Percentage growth inhibition (GI %)
Protocol: as §1, §2

HCC-2998 = test: as above; type: cell-based; settings: Homo sapiens; 0.01 mM; HCC-2998, Colon Cancer; read-out: Percentage growth inhibition (GI %)
Protocol: as §1, §2

MOLT-4 = test: as above; type: cell-based; settings: Homo sapiens; 0.01 mM; MOLT-4, Leukemia; read-out: Percentage growth inhibition (GI %)
Protocol: as §1, §2

EKVX = test: as above; type: cell-based; settings: Homo sapiens, 0.01 mM, Non-Small Cell Lung Cancer, read-out: Percentage growth inhibition (GI %)
Protocol: as §1, §2

SNB-75 = test: as above; type: cell-based; settings: Homo sapiens; 0.01 mM; SNB-75, CNS Cancer; read-out: Percentage growth inhibition (GI %)
Protocol: as §1, §2

NCI-H522 = test: as above; type: cell-based; settings: Homo sapiens; 0.01 mM; NCI-H522, Non-Small Cell Lung Cancer; read-out: Percentage growth inhibition (GI %)
Protocol: as §1, §2

HS 578T = test: as above; type: cell-based; settings: Homo sapiens, 0.01 mM, Breast Cancer, read-out: Percentage growth inhibition (GI %)
Protocol: as §1, §2

ACHN = test: as above; type: cell-based; settings: Homo sapiens, 0.01 mM, Renal Cancer, read-out: Percentage growth inhibition (GI %)
Protocol: as §1, §2

BT-549 = test: as above; type: cell-based; settings: Homo sapiens; 0.01 mM; BT-549, Breast Cancer; read-out: Percentage growth inhibition (GI %)
Protocol: as §1, §2

UACC-257 = test: as above; type: cell-based; settings: Homo sapiens; 0.01 mM; UACC-257, Melanoma; read-out: Percentage growth inhibition (GI %)
Protocol: as §1, §2

DU-145 = test: as above; type: cell-based; settings: Homo sapiens; 0.01 mM; DU-145, Prostate Cancer; read-out: Percentage growth inhibition (GI %)
Protocol: as §1, §2

NCI/ADR-RES = test: as above; type: cell-based; settings: Homo sapiens, 0.01 mM, Ovarian Cancer, read-out: Percentage growth inhibition (GI %)
Protocol: as §1, §2

M14 = test: as above; type: cell-based; settings: Homo sapiens; 0.01 mM; M14, Melanoma; read-out: Percentage growth inhibition (GI %)
Protocol: as §1, §2

SW-620 = test: as above; type: cell-based; settings: Homo sapiens; 0.01 mM; SW-620, Colon Cancer; read-out: Percentage growth inhibition (GI %)
Protocol: as §1, §2

UO-31 = test: as above; type: cell-based; settings: Homo sapiens; 0.01 mM; UO-31, Renal Cancer; read-out: Percentage growth inhibition (GI %)
Protocol: as §1, §2

CAKI-1 = test: as above; type: cell-based; settings: Homo sapiens; 0.01 mM; CAKI-1, Renal Cancer; read-out: Percentage growth inhibition (GI %)
Protocol: as §1, §2

NCI-H460 = test: as above; type: cell-based; settings: Homo sapiens; 0.01 mM; NCI-H460, Non-Small Cell Lung Cancer; read-out: Percentage growth inhibition (GI %)
Protocol: as §1, §2

HCT-15 = test: as above; type: cell-based; settings: Homo sapiens; 0.01 mM; HCT-15, Colon Cancer; read-out: Percentage growth inhibition (GI %)
Protocol: as §1, §2

SN12C = test: as above; type: cell-based; settings: Homo sapiens, 0.01 mM, Renal Cancer, read-out: Percentage growth inhibition (GI %)
Protocol: as §1, §2

RPMI-8226 = test: as above; type: cell-based; settings: Homo sapiens; 0.01 mM; RPMI-8226, Leukemia; read-out: Percentage growth inhibition (GI %)
Protocol: as §1, §2

T-47D = test: as above; type: cell-based; settings: Homo sapiens, T47D, 0.01 mM, Breast Cancer, read-out: Percentage growth inhibition (GI %)
Protocol: as §1, §2

CCRF-CEM = test: as above; type: cell-based; settings: Homo sapiens, 0.01 mM, Leukemia, read-out: Percentage growth inhibition (GI %)
Protocol: as §1, §2

U251 = test: as above; type: cell-based; settings: Homo sapiens, U-251; 0.01 mM; U251, CNS Cancer; read-out: Percentage growth inhibition (GI %)
Protocol: as §1, §2

SF-268 = test: as above; type: cell-based; settings: Homo sapiens; 0.01 mM; SF-268, CNS Cancer; read-out: Percentage growth inhibition (GI %)
Protocol: as §1, §2

SF-295 = test: as above; type: cell-based; settings: Homo sapiens; 0.01 mM; SF-295, CNS Cancer; read-out: Percentage growth inhibition (GI %)
Protocol: as §1, §2

NCI-H23 = test: as above; type: cell-based; settings: Homo sapiens; 0.01 mM; NCI-H23, Non-Small Cell Lung Cancer; read-out: Percentage growth inhibition (GI %)
Protocol: as §1, §2

HL-60(TB) = test: as above; type: cell-based; settings: Homo sapiens, 0.01 mM, Leukemia, read-out: Percentage growth inhibition (GI %)
Protocol: as §1, §2

OVCAR-8 = test: as above; type: cell-based; settings: Homo sapiens; 0.01 mM; OVCAR-8, Ovarian Cancer; read-out: Percentage growth inhibition (GI %)
Protocol: as §1, §2

SF-539 = test: as above; type: cell-based; settings: Homo sapiens; 0.01 mM; SF-539, CNS Cancer; read-out: Percentage growth inhibition (GI %)
Protocol: as §1, §2

K-562 = test: as above; type: cell-based; settings: Homo sapiens, K562; 0.01 mM; K-562, Leukemia; read-out: Percentage growth inhibition (GI %)
Protocol: as §1, §2

PC-3 = test: as above; type: cell-based; settings: Homo sapiens; 0.01 mM; PC-3, Prostate Cancer; read-out: Percentage growth inhibition (GI %)
Protocol: as §1, §2

OVCAR-4 = test: as above; type: cell-based; settings: Homo sapiens; 0.01 mM; OVCAR-4, Ovarian Cancer; read-out: Percentage growth inhibition (GI %)
Protocol: as §1, §2

KM12 = test: as above; type: cell-based; settings: Homo sapiens; 0.01 mM; KM12, Colon Cancer; read-out: Percentage growth inhibition (GI %)
Protocol: as §1, §2

IGROV1 = test: as above; type: cell-based; settings: Homo sapiens, IGROV-1; 0.01 mM; IGROV1, Ovarian Cancer; read-out: Percentage growth inhibition (GI %)
Protocol: as §1, §2

OVCAR-5 = test: as above; type: cell-based; settings: Homo sapiens; 0.01 mM; OVCAR-5, Ovarian Cancer; read-out: Percentage growth inhibition (GI %)
Protocol: as §1, §2

A549/ATCC = test: as above; type: cell-based; settings: Homo sapiens, 0.01 mM, Non-Small Cell Lung Cancer, read-out: Percentage growth inhibition (GI %)
Protocol: as §1, §2

NCI-H226 = test: as above; type: cell-based; settings: Homo sapiens; 0.01 mM; NCI-H226, Non-Small Cell Lung Cancer; read-out: Percentage growth inhibition (GI %)
Protocol: as §1, §2

SK-MEL-5 = test: as above; type: cell-based; settings: Homo sapiens; 0.01 mM; SK-MEL-5, Melanoma; read-out: Percentage growth inhibition (GI %)
Protocol: as §1, §2

MCF7 = test: as above; type: cell-based; settings: Homo sapiens; 0.01 mM; MCF7, Breast Cancer; read-out: Percentage growth inhibition (GI %)
Protocol: as §1, §2

HOP-62 = test: as above; type: cell-based; settings: Homo sapiens; 0.01 mM; HOP-62, Non-Small Cell Lung Cancer; read-out: Percentage growth inhibition (GI %)
Protocol: as §1, §2

HT29 = test: as above; type: cell-based; settings: Homo sapiens, HT-29; 0.01 mM; HT29, Colon Cancer; read-out: Percentage growth inhibition (GI %)
Protocol: as §1, §2

LOX IMVI = test: as above; type: cell-based; settings: Homo sapiens, 0.01 mM, Melanoma, read-out: Percentage growth inhibition (GI %)
Protocol: as §1, §2

MDA-MB-231/ATCC = test: as above; type: cell-based; settings: Homo sapiens, 0.01 mM, Breast Cancer, read-out: Percentage growth inhibition (GI %)
Protocol: as §1, §2

O=C(Cn1c(-c2ccc(O)cc2)nc(-c2ccccc2)c1-c1ccccc1)N/N=C/c1ccc(C(=O)O)cc1 [AE21, 4-((2-(2-(2-(4-hydroxyphenyl)-4,5-diphenyl-1H-imidazol-1-yl)acetyl)hydrazono)methyl)benzoic acid]
inhibition at 10 µM (HCT-116): 50.7%
inhibition at 10 µM (MDA-MB-435): 16.6%
inhibition at 10 µM (HCC-2998): 6.33%
inhibition at 10 µM (MOLT-4): 70.1%
inhibition at 10 µM (EKVX): 32.1%
inhibition at 10 µM (SNB-75): 13.8%
inhibition at 10 µM (NCI-H522): 35.3%
inhibition at 10 µM (HS 578T): 22.5%
inhibition at 10 µM (ACHN): 57.2%
inhibition at 10 µM (BT-549): 11.9%
inhibition at 10 µM (UACC-257): 2.54%
inhibition at 10 µM (DU-145): 43%
inhibition at 10 µM (NCI/ADR-RES): 2.67%
inhibition at 10 µM (M14): 16.5%
inhibition at 10 µM (SW-620): 67.6%
inhibition at 10 µM (UO-31): 12.8%
inhibition at 10 µM (CAKI-1): 8.34%
inhibition at 10 µM (NCI-H460): 82.4%
inhibition at 10 µM (HCT-15): 51.7%
inhibition at 10 µM (SN12C): 47.8%
inhibition at 10 µM (RPMI-8226): 21.4%
inhibition at 10 µM (T-47D): 22.7%
inhibition at 10 µM (CCRF-CEM): 78.4%
inhibition at 10 µM (U251): 48.5%
inhibition at 10 µM (SF-268): 11.7%
inhibition at 10 µM (SF-295): 29.4%
inhibition at 10 µM (NCI-H23): 4.14%
inhibition at 10 µM (HL-60(TB)): 53.6%
inhibition at 10 µM (OVCAR-8): 49%
inhibition at 10 µM (SF-539): 3.59%
inhibition at 10 µM (K-562): 44.7%
inhibition at 10 µM (PC-3): 43.2%
inhibition at 10 µM (OVCAR-4): 15%
inhibition at 10 µM (KM12): 16.2%
inhibition at 10 µM (IGROV1): 4.51%
inhibition at 10 µM (OVCAR-5): 11.7%
inhibition at 10 µM (A549/ATCC): 64.9%
inhibition at 10 µM (NCI-H226): 11.4%
inhibition at 10 µM (SK-MEL-5): 8.04%
inhibition at 10 µM (MCF7): 81.1%
inhibition at 10 µM (HOP-62): 7.6%
inhibition at 10 µM (HT29): 55.4%
inhibition at 10 µM (LOX IMVI): 33.4%
inhibition at 10 µM (MDA-MB-231/ATCC): 25.6%
melting point: 220 to 222 °C
